Results: PMC6696338, “Pharmacokinetic and Metabolism Studies of Monomethyl Auristatin F via Liquid Chromatography-Quadrupole-Time-of-Flight Mass Spectrometry” (Molecules, 2019)
Non-standard residues stand in square brackets, D forms with d. Residues, ends and D or L forms follow the SMILES beside them. Dolaproine = CO[C@@H]([C@@H]1CCCN1)[C@@H](C)C(=O)O; Dil = CC[C@H](C)[C@H](NC)[C@@H](CC(=O)O)OC; NMeV = CN[C@H](C(=O)O)C(C)C

Tests used:
[1] = Pharmacokinetic study of MMAF in rat (IV and PO), plasma by LC-TOF-MS/MS; type: in vivo; settings: male SD rat
Experimental: Twenty microliters of rat plasma samples were placed in a cluster tube. Four microliters (make-up solution) of DMSO were added to the cluster tube, and 100 μL of ACN was also added. The mixture was capped and vortexed, and then centrifuged for 5 min at 12,000 rpm (4 °C). Following the centrifugation, 70 μL supernatant was transferred to an LC vial and diluted by adding 140 μL of DW.
(§1) LC-TOF-MS/MS was consisted of a Shimadzu CBM-20A/LC-20AD chromatographic system (Shimadzu Scientific Instruments, Columbia, MD, USA), with an eksigent CTC HTS PAL auto-sampler (Sciex, Redwood City, CA, USA) and a quadrupole time-of-flight TripleTOF 5600 mass spectrometer (Sciex, Redwood City, CA, USA). Kinetex XB-C18 column (2.1 × 50 mm, Phenomenex) for quantification and Kinetex XB-C18 column (2.1 × 100 mm, Phenomenex) for metabolite profiling studies were used as analytical columns. The LC mobile phase consisted of DW containing 0.1% formic acid (phase A) and ACN containing 0.1% formic acid (phase B). The flow rate was 0.4 mL/min for quantification and 0.3 mL/min for Met ID while maintaining the column temperature at 55 °C. Injection volume was 10 μL.
(1) Quantification: For TOF-MS/MS scan, the scan range was m/z 100~900. The protonated [M + H]^+ ion of MMAF (m/z 732.5) was used and its product ions at m/z 700.5 and m/z 520.3 were selected as the quantitative ion and the qualitative ion, respectively. The source temperature was set at 500 °C. The curtain gas flow was set at 30 L/min. The ion spray voltage (IVSF) was set at 5500 V. The declustering potential (DP) was 100 V, and the collision energy (CE) was 36 V.
Data acquisition and LC-MS/MS operation were conducted using Analyst® TF Version 1.6 (Sciex, Redwood City, CA, USA). MultiQuant® Version 2.1.1 (Sciex, Redwood City, CA, USA) was used for peak integration for MMAF quantification. The descriptive statistics for the qualification studies were calculated with Excel 2015 (Microsoft, Seoul, Korea). Pharmacokinetic parameters were calculated in a non-compartmental analysis using WinNonlin® version 8.0.0 (Certara, Princeton, NJ, USA). PeakView® Version 2.2 (Sciex, Redwood City, CA, USA) and MetabolitePilot^TM Version 2.0.2 (Sciex, Redwood City, CA, USA) were used for the structural elucidation of metabolites. MedChem Designer (Simulations Plus, Inc, Lancaster, CA, USA) was used for in silico metabolite prediction.
Male Sprague-Dawley (SD) rats were used for rat PK studies of MMAF. For rat PK studies of MMAF, rats were distributed into two different groups (5 mg/kg IV (intravenous) group and 10 mg/kg PO (oral) group). After IV or PO dose, blood samples were collected to heparinized tubes and centrifuged immediately at 10,000 rpm for 5 min. The sampling times were 0, 2, 5, 15, 30, 60, 90, 120, 240, 360, and 1440 min for IV PK and 0, 5, 15, 30, 60, 90, 120, 240, 360, and 1440 min for PO PK. The supernatant was transferred to a clean tube and stored at −80 °C until analysis.

[2] = Preliminary stability tests of MMAF in rat plasma; type: in vitro ADME; settings: for Short-term stability, mean concentration / Short-term stability, accuracy %: RT, 4 h; for Short-term stability, accuracy % / Long-term stability, accuracy % / Freeze-thaw stability, accuracy %: n = 3; for Freeze-thaw stability, accuracy %: three cycles
Experimental: Preliminary stability tests were performed in rat plasma under 4 different conditions, including short-term, freeze-thaw, long-term, and post-preparative stability. The short-term stability was assessed at room temperature (RT) for 4 hrs. The long-term stability was assessed by comparing the freshly prepared control samples to the samples kept frozen for 4 weeks at −80 °C. For the freeze-thaw stability, the stability-test samples were subjected to three freeze and thaw cycles at −80 °C. The post-preparative stability was assessed for the QC samples kept in an auto-sampler (10 °C) for 12 hrs.
The acceptance criteria for all of the qualification were within ±15% of the precision and accuracy.

[3] = In vitro metabolite profiling in human liver microsome; type: in vitro ADME; settings: 90 min, 37 °C
Excerpt: as §1
(§2) (2) Metabolite profiling: The mass spectrometric conditions for the metabolite profiling of MMAF were as follows. The information-dependent analysis (IDA) with high-resolution TOF full scan was operated with electrospray ionization (ESI) in positive ion mode using real-time multiple mass defect filtering (MDF) and dynamic background subtraction. The IDA method consisted of TOF scan (m/z 50 to 1200) for the detection of MMAF and its metabolites. The method was followed by 6 TOF-MS/MS dependent scans (m/z 50 to 1200) for structural elucidation. […]

[4] = qualitative comparison; cited from earlier work
Excerpt: Auristatin is a microtubule-destroying drug. It was derived from marine shell-less mollusk Dolabella auricularia called dolastatins (Figure 1). After the dolastatin was found, it has been studied in the treatment of cancer, malaria, and fungus. After the successful total synthesis of dolastatin 10, various derivatives have been synthesized, such as monomethyl auristatin E (MMAE) and monomethyl auristatin F (MMAF). MMAE and MMAF were developed by Seattle Genetics and used as payloads for ADC. MMAF and MMAE have their advantages and disadvantages. MMAE is m ...

[5] = In vitro metabolite profiling in rat liver microsome; type: in vitro ADME; settings: 90 min, 37 °C
Excerpt: as §1, §2

[6] = processed rat plasma QC in auto-sampler, 10 °C, high QC
[7] = processed rat plasma QC in auto-sampler, 10 °C, low QC

Compound: CC[C@H](C)[C@@H]([C@@H](CC(=O)N1CCC[C@H]1[C@H](OC)[C@@H](C)C(=O)N[C@@H](Cc1ccccc1)C(=O)O)OC)N(C)C(=O)[C@@H](NC(=O)[C@@H](NC)C(C)C)C(C)C [MMAF, monomethyl auristatin F] (H-[NMeV]V[Dil][Dolaproine]F-OH)
- clearance ([1]; Sprague-Dawley, plasma, IV 5 mg/kg, non-compartmental analysis, read-out: Clearance (CL)): 77.3 mL/min/kg
- Vd ([1]; Sprague-Dawley, plasma, IV 5 mg/kg, non-compartmental analysis, read-out: Vss): 1.06 L/kg
- AUC(0-t) ([1]; Sprague-Dawley, IV 5 mg/kg, plasma, non-compartmental analysis): 1090 ng·h/mL
- Cmax ([1]; Sprague-Dawley, IV 5 mg/kg, plasma, non-compartmental analysis, LC-TOF-MS/MS): 8280 ng/mL
- Bioavailability ([1]; PO 10 mg/kg vs IV 5 mg/kg): 0%
- Systemic exposure after oral dosing ([1]; PO 10 mg/kg, plasma): no systemic exposure was observed
- Post-preparative stability, area ratio after 12 h as % of first injection [2, 6]: 99.98%
- Post-preparative stability, area ratio of 10th injection (after 12hr) [2, 6]: 7.43
- Post-preparative stability, area ratio after 12 h as % of first injection [2, 7]: 97.93%
- Post-preparative stability, area ratio of 10th injection (after 12hr) [2, 7]: 0.61
- Post-preparative stability, area ratio of 1st injection [2, 6]: 7.43
- Short-term stability, mean concentration ([2]; rat plasma, high QC 1820 ng/mL, LC-TOF-MS/MS, mean of n = 3): 1884.23 ng/mL
- Short-term stability, accuracy % ([2]; rat plasma, high QC 1820 ng/mL): 103.53%
- Short-term stability, mean concentration ([2]; rat plasma, low QC 165.46 ng/mL, LC-TOF-MS/MS, mean of n = 3): 149.90 ng/mL
- Short-term stability, accuracy % ([2]; rat plasma, low QC 165.46 ng/mL): 90.60%
- Long-term stability, mean concentration ([2]; rat plasma, −80 °C, 4 weeks, high QC 1820 ng/mL, LC-TOF-MS/MS, mean of n = 3): 1657.96 ng/mL
- Long-term stability, accuracy % ([2]; rat plasma, −80 °C, 4 weeks, high QC 1820 ng/mL): 91.10%
- Long-term stability, accuracy % ([2]; rat plasma, −80 °C, 4 weeks, low QC 165.46 ng/mL): 95.46%
- Freeze-thaw stability, accuracy % ([2]; rat plasma, −80 °C, high QC 1820 ng/mL): 91.10%
- Freeze-thaw stability, accuracy % ([2]; rat plasma, −80 °C, low QC 165.46 ng/mL): 95.46%
- Stability in rat plasma (in words) ([2]; short-term, long-term, freeze/thaw and post-preparative conditions, acceptance ±15%): stable
- Number of metabolites tentatively identified [3]: seven
- Aggregation tendency relative to MMAE [4]: lower aggregation tendency
- Hydrophilicity relative to MMAE [4]: more hydrophilic
- Systemic toxicity relative to MMAE [4]: lower systemic toxicity
- Number of metabolites tentatively identified [5]: four

Compound: monomethyl auristatin E [MMAE]
- IC50 relative to MMAF [4]: lower IC50 than MMAF
- Membrane permeability relative to MMAF [4]: more membrane-permeable
